Measured values reported in patent US7060490B1, “DNA encoding novel estrogen receptor” (Akzo Nobel N.V., priority 1996, dated 2006).

Tests used:
ERα = biological target: T1, ERα (Homo sapiens, UniProt P03372); experiment: Transactivation assay in stably transfected CHO cell line expressing ERα with rat oxytocin-luciferase reporter; format: cell-based; conditions: stably transfected CHO cell lines ERα vs ERβ; agonist curves FIGS. 5A, 5B
T1 construct: expressed in transfected cells

ERβ = ERβ (Homo sapiens, UniProt Q92731); experiment: Transient transfection transactivation assay, rat oxytocin promoter-luciferase reporter in CHO cells, ERβ
Sequence of ERβ (Q92731 whole entry): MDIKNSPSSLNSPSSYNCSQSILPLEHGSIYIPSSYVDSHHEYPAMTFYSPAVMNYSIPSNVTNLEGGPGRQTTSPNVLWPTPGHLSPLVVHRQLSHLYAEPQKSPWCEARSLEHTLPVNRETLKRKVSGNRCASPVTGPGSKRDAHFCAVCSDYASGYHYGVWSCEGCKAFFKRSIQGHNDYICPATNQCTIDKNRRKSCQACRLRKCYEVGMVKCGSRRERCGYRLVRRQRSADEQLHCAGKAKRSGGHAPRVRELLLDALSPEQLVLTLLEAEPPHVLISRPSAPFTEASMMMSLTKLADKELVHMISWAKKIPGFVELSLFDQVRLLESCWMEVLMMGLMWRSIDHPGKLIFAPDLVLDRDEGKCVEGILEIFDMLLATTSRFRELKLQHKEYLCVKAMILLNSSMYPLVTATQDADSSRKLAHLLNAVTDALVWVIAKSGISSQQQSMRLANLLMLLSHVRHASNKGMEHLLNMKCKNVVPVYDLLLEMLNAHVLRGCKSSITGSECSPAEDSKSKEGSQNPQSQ

T1 sequence (P03372 whole entry): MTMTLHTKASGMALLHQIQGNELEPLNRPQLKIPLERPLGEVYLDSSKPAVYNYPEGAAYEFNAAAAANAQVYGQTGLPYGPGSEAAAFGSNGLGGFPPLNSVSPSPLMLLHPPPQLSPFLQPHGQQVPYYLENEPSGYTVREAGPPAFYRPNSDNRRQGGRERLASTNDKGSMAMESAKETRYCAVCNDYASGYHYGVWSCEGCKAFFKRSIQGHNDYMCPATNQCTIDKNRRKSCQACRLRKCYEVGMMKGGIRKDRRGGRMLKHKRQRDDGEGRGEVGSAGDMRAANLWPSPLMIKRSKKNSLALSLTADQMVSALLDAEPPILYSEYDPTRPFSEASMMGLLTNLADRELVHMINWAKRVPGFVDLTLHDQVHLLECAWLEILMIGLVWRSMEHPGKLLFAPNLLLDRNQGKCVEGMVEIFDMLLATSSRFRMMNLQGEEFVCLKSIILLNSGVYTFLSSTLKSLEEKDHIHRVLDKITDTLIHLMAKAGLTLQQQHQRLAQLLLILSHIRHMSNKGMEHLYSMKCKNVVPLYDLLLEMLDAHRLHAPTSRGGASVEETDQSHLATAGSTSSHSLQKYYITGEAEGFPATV

Row | SMILES | concentration for half-maximal transactivation, ERα as compared to ERβ (ERα) | stimulation of luciferase activity with ERβ (ERβ; 10^−9 mol/L 17β-estradiol, transient CHO, normalised for β-galactosidase, FIG. 3) [fold] | increase in luciferase activity as compared to untreated cells (ERβ; CHO cells transiently transfected with ERβ expression vector and reporter, hormones 10^−7 mol/L, FIG. 2) [fold]
1 | C#C[C@]1(O)CC[C@H]2[C@@H]3[C@H](C)CC4=C(CC[C@@H](O)C4)[C@H]3CC[C@@]21C [Org4094] | much more pronounced |  | 
2 | C[C@]12CC[C@@H]3c4ccc(O)cc4CC[C@H]3[C@@H]1CC[C@@H]2O [17β-estradiol] |  | 7 | 3 to 4
